{"source": "patent US7189754B2", "about": "“Pyrrolidine ester derivatives with oxytocin modulating activity” (Applied Research Systems ARS Holding NV, priority 2001, dated 2007)", "key": {"[1]": {"target": "T1, hOT receptor (Homo sapiens, UniProt P30559)", "T1 construct": "expressed in transfected cells; host or cells: HEK293EBNA", "T1 sequence (P30559 1-389)": "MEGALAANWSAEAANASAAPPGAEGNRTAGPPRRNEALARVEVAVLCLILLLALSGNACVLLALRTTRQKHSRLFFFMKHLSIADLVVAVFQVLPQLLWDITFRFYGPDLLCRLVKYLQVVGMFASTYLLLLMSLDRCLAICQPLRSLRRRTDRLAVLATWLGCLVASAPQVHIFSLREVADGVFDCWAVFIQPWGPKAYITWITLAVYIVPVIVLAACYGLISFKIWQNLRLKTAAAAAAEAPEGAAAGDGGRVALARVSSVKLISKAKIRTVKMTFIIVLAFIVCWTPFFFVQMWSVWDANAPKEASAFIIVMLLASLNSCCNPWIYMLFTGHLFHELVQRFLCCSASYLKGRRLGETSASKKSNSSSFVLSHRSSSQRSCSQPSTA", "assay": "Functional assay No. 1: inhibition of oxytocin mediated Ca2+-mobilization by FLIPR in HEK293EBNA cells", "type": "cell-based", "conditions": "HEK293EBNA cells expressing hOT receptor, OT 40 nM, fluo-4, FLIPR; read-out: Inhibition of Ca2+ mobiliation, hOT-R IC50", "source_text": "b) Functional Assay No. 1: Inhibition of Oxytocin Mediated Ca^2+-mobilization by FLIPR® (Fluorimetric Imaging Plate Reader)\nThe action of OT on the OT-receptor triggers a complex cascade of events in the cell which leads to an increase in the intra-cytoplasmic Ca^2+ concentration. This increase in Ca^2+ concentration results from both calcium release from the sarcoplasmic reticulum (calcium stores) into the cytoplasm and from calcium influx from the extracellular space through Ca^2+ channels. […]\nFLIPR® is a fluorimetric imaging device using a laser (Argon-ion laser) for simultaneous illumination and reading (cooled CCD camera) of each well of a 96-well-plate, thus enabling rapid measurements on a large number of samples. […]\nThe relative fluorescence of Fluo-4 (λex=488 nm, […]) is then measured by the FLIPR in presence or absence of compounds of formula (I). The fluorescence of the marker being sensitive to the amount of Ca^2+, the Ca^2+ movements can be detected. Then, the ability of compounds of formula (I) to antagonize the oxytocin-induced intracellular Ca^2+-mobilization mediated by the oxytocin receptor may be determined.\nThe activities of the pyrrolidine derivatives according to formula (I) were assessed using the above described in vitro biological assay. […]"}, "[2]": {"test_system": "oxytocin-induced uterine contractions in the rat", "assay": "In vivo model for inhibition of uterine contractions (oxytocin-induced, anaesthetised DES-treated rats)", "conditions": "intravenous, PEG400/saline 50:50, 5 ml/kg infusion", "protocol": "d) In Vivo Model for Inhibtion of Uterine Contractions\nThe assay evaluates the biological effect of tested compounds in an in vivo model of preterm labor, premature birth.\nNon-pregnant Charles River CD (SD) BR female rats (9–10 weeks old, 200–250 g) were treated at 18 and 24 hours before the experiment with 250 μg/kg, i.p. diethylstilbestrol (DES). For the assay, the animal was anaesthetised with urethane (1.75 g/kg, i.p.) and placed on a homeothermic operating table. The trachea was isolated and cannulated with a suitable polyethylene (PE) tubing. A midline incision at the hypogastrium level was made and one uterine horn exposed, its cephalic end cannulated with a PE240 tubing and, after filling the internal cavity with 0.2 ml of sterile physiological saline, connected to a “Gemini” amplifying/recording system via a P23ID Gould Statham pressure transducer.\nOne jugular vein was isolated, cannulated with a PE60 tubing and connected to a butterfly needle to provide an i.v. route of administration of the test compounds via a dispensing syringe.\nIn the case of intraduodenal administration of the test compounds, the duodenum can be isolated and similarly cannulated through a small incision in its wall.\nOne carotid artery was also isolated and cannulated with PE60 catheter and connected to a suitable syringe for blood sample collection.\nAfter a stabilization period and throughout the experiment, the same dose of oxytocin was repeatedly injected intravenously at 30-min intervals. When reproducible contractile responses of the uterus to the same OT stimulus (selected dose of oxytocin) were obtained, the dose of the test compound or of the reference (vehicle) was administered. […]\nThe contractile response of the uterus to oxytocin was quantified by measuring the intrauterine pressure and the number of contractions. The effect of the reference and test compounds was evaluated by comparing pre- and post-treatment pressure values. […]\nThe activities of the pyrrolidine derivatives of formula (I) may be assessed using the above described in vivo biological assay. […]"}}}
{"smiles": "CO/N=C1\\C[C@@H](C(=O)OC)N(C(=O)c2ccc(-c3ccccc3C)cc2)C1", "note": "[Methyl (2S,4E)-4-(methoxyimino)-1-[(2′-methyl[1,1′-biphenyl]-4-yl)carbonyl]-2-pyrrolidinecarboxylate]", "values": [{"measurement": "IC50", "setting": "[1]", "result": 0.015, "unit": "µM"}]}
{"smiles": "CO/N=C1/C[C@@H](C(=O)OC)N(C(=O)c2ccc(-c3ccccc3C)cc2)C1", "note": "[Methyl (2S,4Z)-4-(methoxyimino)-1-[(2′-methyl[1,1′-biphenyl]-4-yl)carbonyl]-2-pyrrolidinecarboxylate]", "values": [{"measurement": "IC50", "setting": "[1]", "result": 0.015, "unit": "µM"}, {"measurement": "% Reduction of Uterine Contraction", "setting": "[2]; dose 1 mg/kg", "result": "−35.4 ± 7.0", "unit": "%"}, {"measurement": "% Reduction of Uterine Contraction", "setting": "[2]; dose 3 mg/kg", "result": "−49.0 ± 6.5", "unit": "%"}, {"measurement": "% Reduction of Uterine Contraction", "setting": "[2]; dose 10 mg/kg", "result": "−51.8 ± 9.2", "unit": "%"}, {"measurement": "melting point", "result": 40, "unit": "°C"}]}
